In patent publication US9006185B2, “Use of cell-permeable peptide inhibitors of the JNK signal transduction pathway for the treatment of various diseases” (Xigen Inflammation Ltd., priority 2008, dated 2015):
Entries after “also recorded” stand apart in the source; their conditions may differ.

What was measured:
[1] = system: Varicella-Zoster Virus (VZV); experiment: Plaque reduction assay against VZV in HFFs; type: cell-based, human; details: for Spread of VZV (pfu) ± SD: 24 hours
Procedure: Additionally, inhibitors of cell functions may be toxic to cells, which could non-specifically prevent virus growth. […] Since this may falsify the results, a cytotoxicity assay was carried out first, determining the tolerance of the cultured cells to the test compound. Subsequently, a plaque reduction assay was carried out and then activity of the JNK inhibitor peptide XG-102 (SEQ ID NO: 11) was tested with respect to […] (VZV) in infected cells. • A) Determination of the Cytotoxicity of all-D Retro-Inverso Ib(s) Peptides: • For determination of toxicity, cultured cells (human foreskin fibroblasts (HFFs)) were seeded in 96-well tissue culture plates. Medium containing DMSO (same level as 5 μM XG-102 (SEQ ID NO: 11)), or XG-102 (SEQ ID NO: 11) was added at several concentrations of (1, 2, and 5 μM) for 24 h. Subsequently, a Neutral Red assay was carried out. Neutral Red colorimetric assays for cytotoxicity assays (in sets of 6 replicates) were used to set the maximum dose for subsequent efficacy assays (as performed in Taylor et al, 2004, J. Virology, 78:2853-2862). Live cells absorb Neutral Red and, accordingly, the level of absorbance is a quantitative measure of cell viability and number. Neutral Red uptake is directly proportional to the number of cells and also reflects normal endocytosis. Therefore, a brief pulse of Neutral Red was added to the medium at 0 or 24 hours. After fixation and extraction, dye was added and the amount of dye in each sample was measured in an ELISA plate reader at 540 nm (see FIG. 4). […] In this plaque reduction assay, confluent human foreskin fibroblasts (HFFs) in 24-well plates were inoculated with VZV-infected HFFs at a ratio of 1:100 (multiplicity of infection MOI=0.01) and adsorbed to the cells for 2 hours. The excess virus was washed out, and medium containing 0 (DMSO only), 0.5, 1, or 2 μM XG-102 (SEQ ID NO: 11) was added. One sample was taken at this time to measure the initial level of infection; wherein each well contained ˜150 pfu. After 24 hours, duplicate wells were trypsinized, and then the cell suspensions were titered on MeWo cell monolayers in triplicate to determine the number of VZV-infected cells in each sample. During unrestricted growth, VZV usually increases by 10-fold over 1 day because it propagates by cell-cell spread. […]

hAPP Tg mice = experiment: Plaque load by 6E10 immunohistochemistry and ThioflavinS staining in hAPP Tg mice; type: in vivo
Procedure: iv) Treatment • Forty female hAPP transgenic mice were treated with either 0.1 mg/kg b.w./every two weeks or 10 mg/kg b.w./every three weeks of the test substance XG-102 (SEQ ID NO: 11) in two different dosages (n=12/group) or treated with the vehicle (n=12) s.c. once every three weeks over four months.
viii) Evaluation of Brain Morphology • Brain tissues of all Tg animals investigated were handled in exactly the same way to avoid bias due to variation of this procedure. From brain halves of 24 Tg mice (8 of each group) 20 cryo-sections per layer (altogether 5 layers), each 10 μm thick (Leica CM 3050S) were sagittally cut and 5 (one from each layer) were processed and evaluated for quantification of plaque load. The five sagittal layers corresponded with the FIGS. 104 to 105, 107 to 108, 111 to 112, 115 to 116 and 118 to 119 according to the morphology atlas “The Mouse Brain” from Paxinos and Franklin (2nd edition). The first layer was specified by the requirement to include the whole hippocampus with it's regions CA1, CA2, CA3, GDIb and GDmb. Immunoreactivity was quantitatively evaluated in the hippocampus and in the cortex using the monoclonal human Aβ-specific antibody 6E10 (Signet) as well as ThioflavinS staining. Remaining brain hemispheres or tissue not used were saved and stored at JSW CNS until the end of the project. b) Evaluation
iii) Histology • i1) Measurement of Amyloid Depositions and Plaque Load • For 6E10 immunohistochemistry the following evaluation procedure was used: • aa) Contrasting the image for visualization of slice borders without applying the contrast on the image. • bb) Interactive drawing of the cortical outlines and the following measurement of the cortical area (=region area). • cc) Interactive drawing of the area of interest (AOI), in which stained objects are detected over a certain intensity based threshold level (the same for each image) and above a size of 8 μm^2. • dd) Measurement of the area of each object, the sum of stained area in the AOI as well as the number of objects after a smooth contrasting to enhance signal/noise ratio (the same for each image). • ee) Repetition of aa)-dd) for the hippocampus. • ff) Calculation of the mean plaque size (=“sum area of plaques/number of plaques”), the relative plaque number and area (=“number of plaques/region area” and “sum area of plaques/region area*100”). • gg) Automated data export into an Excel spread sheet, including the parameters “image title, region area, number of plaques, sum of plaque area, relative plaque number, relative plaque area and mean plaque size. A field for remarks was used to record image quality and exclusion criteria, respectively. Exclusion criteria were missing parts of the slice, many wrinkles, dominant flaws or staining inconsistencies (e.g. due to bulges, which can impede the full reaction of the blocking reagent). • hh) Closing the image without saving (to keep raw data raw). c) Results

[2] = system: Varicella-Zoster Virus (VZV); experiment: VZV-BAC-Luc replication in HFFs, luciferase assay; type: cell-based, human; details: 24 h, 0.25, 0.5, 1.0 μM tested
Procedure: Virus yield was measured by luciferase assay. Samples were in triplicate and the average luminescence is shown; error bars represent the standard deviation of the mean.

THP-1 cells = experiment: LPS-induced cytokine and chemokine release in THP-1 cells; type: cell-based

Text for db/db mice: i) Animals • A total of twenty (20) male db/db mice (8 weeks old) were obtained from Charles River (Germany). Upon arrival, animals were group housed (n=6-7/group) and offered regular rodent chow (Altromin standard #1324 chow; C. Petersen, Ringsted, Denmark) and water ad libitum unless otherwise stated. • The mice were housed under a 12:12 L/D cycle (lights on at 4:00 and lights off at 16:00) and in temperature and humidity controlled rooms.
ii) Groups and Randomization • On day 4, mice were randomized according to blood glucose level (fasted; blood glucose measured on Biosen S line analyzer (EKF diagnostic, Germany) to participate in one of the following drug treatment groups (n=6): • 1) Vehicle control, S.C. […] Drug purity: 95.28%, peptide content: 78.0%. All compounds were administered sub-cutaneously (s.c.) in a volume of 3 ml/kg. […] The formulations (concentrations of 0.33 and 3.3 mg/ml, corresponding to the doses of 1 and 10 mg/kg, respectively) were prepared according to the procedure detailed below. […] Aliquots are prepared for each treatment day and stored at approximately −80° C. Dilutions of this stock solution to the required concentrations are performed on each treatment day; • Storage of the stock solution: at approximately −80° C.; • Storage of the diluted preparations: at room temperature for 24 hours maximum. • Prior to solubilisation, the powder was stored at −20° C. The stability of the stock solution is 3 months at approximately −80° C.; the stability of the diluted formulations for animal dosing is 24 hours at room temperature. Unused diluted material could be stored for up to 7 days if kept at 4-8° C. c) Experimental Procedure
Following 8 days of acclimatization the mice were treated daily at 08.00 AM for 21 days by SC dosing 8 hours prior to lights out at 04.00 PM according to the outline groups.
i) Blood Glucose • Blood glucose was measured from 7 hour fasted animals 6 hours post dosing by collection of 10 μl blood samples from the tail-vein in hematocrite tubes and subsequent analysis on a Biosen s-line analyzer (EKF-diagnostic; Germany).
ii) Metabolic Cages • Groups 1+3: Mice were placed in metabolic cages for the recording of 24-hour food and water intake as well as 24-hour urine and feces production. Mice were stratified into two sub-teams of n=6-7 and subsequently the metabolic characterisation were performed on study days 71-72.
iii) Adipokine Panel • Groups 1+3: On three occasions (study days 57, 66 and 108) blood was collected from the tail vein using EDTA coated hematocrite tubes (100 μl). Following centrifugation of blood the plasma was collected and stored at −20° C. until measurement. Then, the following panel of adipokines/cytokines was determined using Luminex based 7-plex: leptin, resistin, MCP-1, PAI-1, TNF, insulin and interleukin-6 (IL-6).
iv) Termination • Groups 1+3 (day 111): The following organs were excised and weighed: inguinal subcutaneous fat, epididymal fat, retroperitoneal fat, brain, liver, kidney, spleen and heart. All organs described above were samples in 4% PFA for possible future histo-pathological examination. Also, pancreas (en bloc) was sampled for possible stereological and immunohistochemical analysis, and eyes were sampled for possible later analysis of retinopathy. Group 2 (day 28): No tissues or plasma were collected. c) Results

In the case of CC(C)C[C@@H](NC(=O)[C@@H](Cc1ccccc1)NC(=O)[C@H]1CCCN1C(=O)[C@@H](CCC(N)=O)NC(=O)[C@H](NC(=O)[C@H]1CCCN1C(=O)[C@@H](CCCNC(=N)N)NC(=O)[C@@H](CO)NC(=O)[C@@H](CCC(N)=O)NC(=O)[C@H](N)CC(=O)O)C(C)C)C(=O)N[C@H](CC(N)=O)C(=O)N[C@H](CC(C)C)C(=O)N[C@@H](C(=O)N[C@@H](C(=O)N1CCC[C@@H]1C(=O)N[C@H](CCCNC(=N)N)C(=O)N[C@H](CCCCN)C(=O)N1CCC[C@@H]1C(=O)N[C@H](CCCNC(=N)N)C(=O)N1CCC[C@@H]1C(=O)N1CCC[C@@H]1C(=O)N[C@H](CCCNC(=N)N)C(=O)N[C@H](CCCNC(=N)N)C(=O)N[C@H](CCCNC(=N)N)C(=O)N[C@H](CCC(N)=O)C(=O)N[C@H](CCCNC(=N)N)C(=O)N[C@H](CCCNC(=N)N)C(=O)N[C@H](CCCCN)C(=O)N[C@H](CCCCN)C(=O)N[C@H](CCCNC(=N)N)C(=O)NCC(=O)O)[C@H](C)O)[C@H](C)O [XG-102], the fasting blood glucose (db/db mice; 1 mg/kg s.c., 28 days of dosing) is reported as “no effect”, the body weight (db/db mice; 1 mg/kg, 28 days of dosing) is reported as “no effect” and the “fasting blood glucose, low plateau” value (db/db mice; 10 mg/kg s.c.) is reported as “approximately 5 mmol/L”. The “fasting blood glucose vs vehicle control” value (db/db mice; 10 mg/kg s.c. daily for 21 days, then wash-out to day 111) was “clear and significant (p<0.001) decrease in the level of fasting blood glucose”, the “plasma levels of insulin, MCP-1, IL-6, tPAI-1, TNF” value (db/db mice; 10 mg/kg, day 57, 77 and 108) was “no significant effects” and the plasma resistin (db/db mice; 10 mg/kg, day 77 and 108) was “significantly higher”. The “body weight vs vehicle control” value (db/db mice; 10 mg/kg, from day 28 to day 111) was “clear and significant (p<0.001) prevention of body weight increase”, the “24 hour food and water intake, urine and feces production (metabolic cages)” value (db/db mice; 10 mg/kg, study day 68) was “no significant effects” and the “tissue weight of epididymal and retroperitoneal fat pads” value (db/db mice; 10 mg/kg, termination day 111) was “significant decrease of epididymal (p<0.05) and retroperitoneal (p<0.01) fat mass”. The “tissue weight of kidney and liver” value (db/db mice; 10 mg/kg, termination day 111) was “significant decrease of kidney (p<0.05) and liver (p<0.01) mass”, the “alertness, activity, sedation” value (db/db mice; mouse, in vivo) was “no signs of sedation” and the “Spread of VZV (pfu) ± SD” value ([1]; 0.5 μM) was 260 ± 53 pfu. For the same molecule, the “Spread of VZV (pfu) ± SD” value ([1]; 1.0 μM) was 212 ± 48 pfu, the “Spread of VZV (pfu) ± SD” value ([1]; 2.0 μM) was 312 ± 79 pfu and the “antiviral effect against VZV” value ([1]; 0.5, 1, 2 μM) was “potent inhibitor of Varizella Zoster Virus (VZV); also recorded: strong antiviral effect at all the concentrations tested”. The VZV yields ([1]; all the concentrations tested (0.5-2 μM)) was 200-300 pfu, the “mean plaque size (ThioflavinS, hippocampus)” value (hAPP Tg mice; 0.1 mg/kg) was “reduced mean plaque size, however this effect did not reach significance level” and the “cortical 6E10 IR plaque load” value (hAPP Tg mice; 10 mg/kg) was “increased versus vehicle”. For the same molecule, the “ThioflavinS plaque area [%] in the hippocampus” value (hAPP Tg mice; mouse, in vivo) was “significantly reduced the area obtained by plaques in the hippocampus”, the “cortical plaque load (ThioflavinS)” value (hAPP Tg mice; mouse, in vivo) was “cortical plaque load remained unchanged” and the “number of hippocampal ThioflavinS positive plaques” value (hAPP Tg mice; p<0.05 for 10 mg/kg, p<0.01 for 0.1 mg/kg) was “reduced the number of plaques negatively dose-dependent in the hippocampus; also recorded: a negatively dose dependent reduction of the number of hippocampal ThioflavinS positive plaques”. The “concentration preventing VZV replication (lowest concentration tested)” value [2] was no more than 0.25 µM and the “LPS-induced TNFa, IL-6 and MCP-1 release” value (THP-1 cells) was “reducing LPS-induced TNFa, IL-6 and MCP-1 release in THP-1 cells”.
